{"source": "PubChem BioAssay AID977607", "about": "(Broad Institute, 2014)", "note": "Activity calls are given as the source filed them.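 Rule for the calls: active = curve reaches 40% activation over neutral controls at an AC40 no higher than the top valid tested concentration; inconclusive = no clear call, values can overlap the other calls; inactive = signal moving opposite to the expected increase, and the rest.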", "data": [{"tested_on": "INS-1E GLuc insulin secretion reporter, luminescence, 2-3 h", "experiment": "GLuc-reported insulin release enhancers, glucose-stimulated beta cells – cell-based, INS-1E, Gaussia luciferase, luminescence, cherry-pick, set 2, dose response (AID 977607)", "values": [{"smiles": "CCOC(=O)c1c(-n2cnnn2)sc2c1CCCC2", "AC40": "14.6 µM"}, {"smiles": "N#Cc1sc2nc(N3CCCCC3)c3c(c2c1N)CCCC3", "AC40": "28.6 µM"}, {"smiles": "CN(C(=O)c1ccc2c(c1)SC1=NS(=O)(=O)CCN12)C(c1ccccc1)c1ccccc1", "AC40": "0.518 µM"}, {"smiles": "CN(C)CCNC(=O)c1cccc(-c2cc(NC=O)c3ncc(-c4cccc(C(F)(F)F)c4)n3c2)c1", "AC40": "24.4 µM"}, {"smiles": "Cc1cc(C)nc(Nc2n[nH]c(COc3ccc4ccccc4c3)n2)n1", "AC40": "7.71 µM"}, {"smiles": "CC1(C(=O)NS(=O)(=O)c2ccc(Cl)s2)CCN1C(=O)C1(c2ccccc2)CCCC1", "note": "(centres undefined)", "AC40": "10.7 µM"}, {"smiles": "CCCCCc1cc(=O)oc2c(C(CCN3CCCC(C)C3)c3ccc(OC)cc3)c(OC)cc(OC)c12", "note": "(centres undefined)", "AC40": "12 µM"}, {"smiles": "CCC(=O)Nc1ccc(Cl)c(NC(=S)NC(=O)COc2ccc(Cl)cc2)c1", "AC40": "7.71 µM"}, {"smiles": "O=C(N/N=C/c1ccco1)c1cc(-c2ccc3ccccc3c2)n[nH]1", "AC40": "4.19 µM"}, {"smiles": "O=c1[nH][nH]c2c1C(c1ccc(Cl)c(Cl)c1)OC(CCc1ccccc1)C2", "note": "(centres undefined)", "AC40": "16.9 µM"}, {"smiles": "O=C(Nc1cccc(Cl)c1)Nc1nnc(CSCCOc2ccc(Cl)cc2)s1", "AC40": "5.57 µM"}, {"smiles": "Cc1nc(N)c(C#N)c(-c2cccnc2)c1C", "AC40": "14.2 µM"}, {"smiles": "COc1ccc(C(=O)NC(=S)Nc2ccc3c4c(cccc24)CC3)cc1OC", "AC40": "7.84 µM"}, {"smiles": "CCOc1ccc(-n2nnnc2-c2nc3ccccc3s2)cc1", "AC40": "6.78 µM"}, {"smiles": "CC(C)(c1ccccc1)c1ccc(OCC(O)CNC2CCN(Cc3ccccc3)CC2)cc1", "note": "(centres undefined)", "AC40": "11.8 µM"}, {"smiles": "O=C(CCN1CCOCC1)c1ccccc1", "AC40": "7.71 µM"}, {"smiles": "CCCCCCn1c(N(CC)CC)nc2c1c(=O)[nH]c(=O)n2C", "AC40": "23.8 µM"}, {"smiles": "COC(=O)c1cnn(-c2nc(-c3ccccc3)cs2)c1N", "AC40": "> 35 µM (inactive)"}, {"smiles": "Cn1c(=O)oc2cc(S(=O)(=O)N3CCC(C(=O)Nc4ccc(OC(F)(F)F)cc4)CC3)ccc21", "AC40": "7.48 µM"}, {"smiles": "NC1=NC[C@H](CC2CCCCC2)N1CCc1cc(C(F)(F)F)cc(C(F)(F)F)c1", "AC40": "16.6 µM"}, {"smiles": "CCOc1ccc(Nc2oc(-c3ccc(Cl)cc3)nc2C#N)cc1", "AC40": "5.14 µM"}, {"smiles": "COc1ccccc1CCn1cnc(-c2ccccc2OC)c1CC(C)C", "AC40": "14.6 µM"}, {"smiles": "CC1(Cc2ccc(C(F)(F)F)o2)C(=O)Nc2ccc(-c3cccc(C(F)(F)F)c3)cc21", "note": "(centres undefined)", "AC40": "8.84 µM"}, {"smiles": "COc1ccc(C#Cc2ccc([C@@H]3[C@H](CO)N4CCCCN(Cc5ccccc5F)C[C@@H]34)cc2)cc1", "AC40": "6.53 µM"}, {"smiles": "Fc1cccc(CN2C[C@@H]3N[C@H](C2)C3c2ccc(/C=C/c3ccccc3)cc2)c1", "note": "(some centres undefined)", "AC40": "11.4 µM"}, {"smiles": "COc1cccc(-c2sc3ccccc3c2-c2ccc(OCCN(C)C)cc2)c1", "AC40": "3.37 µM"}, {"smiles": "Cn1c(=O)c(C(=O)NNC(=O)c2cccc(Cl)c2)c(O)c2ccccc21", "AC40": "7.02 µM"}, {"smiles": "CC(=O)C1=C(S(=O)(=O)c2ccc(C)cc2)CS(=O)(=O)C1", "AC40": "1.23 µM"}, {"smiles": "COc1ccccc1CCn1cnc(-c2cccc(F)c2)c1CC(C)C", "AC40": "11.3 µM"}, {"smiles": "COc1cccc(-c2ccc(C3[C@@H]4CN(Cc5cccc(F)c5)C[C@H]3N4)cc2)c1", "note": "(some centres undefined)", "AC40": "4.47 µM"}, {"smiles": "O=S(=O)(Nc1ccc(-c2ccc3nncn3n2)cc1)c1ccccc1Cl", "AC40": "15.2 µM"}, {"smiles": "Cc1ccccc1-n1sc2cc(F)ccc2c1=O", "AC40": "1.56 µM"}, {"smiles": "Cc1ccc(CNc2nc(NCc3ccccc3)nc3ccsc23)c(C)c1", "AC40": "19.2 µM"}, {"smiles": "CC(C)CC#Cc1ccc2c(c1)O[C@H](CN(C)C(=O)C1CCCCC1)[C@@H](C)CN([C@@H](C)CO)S2(=O)=O", "AC40": "10.2 µM"}, {"smiles": "Fc1ccccc1/C=N/n1c(C2CCCCC2)n[nH]c1=S", "AC40": "18.5 µM"}, {"smiles": "COc1ccccc1CCn1cnc(-c2cccc(F)c2)c1C(C)C", "AC40": "14 µM"}, {"smiles": "N#Cc1c(-c2cccc(Br)c2)cc(-c2cccnc2)nc1N", "AC40": "5.82 µM"}, {"smiles": "CS(=O)(=O)N(Cc1ccc(Cl)cc1)c1ccc(C(=O)NCCC2=CCCCC2)cc1", "AC40": "13 µM"}, {"smiles": "O=C(COc1ccc2c(c1)OCO2)Nc1ccc2c(c1)oc1ccccc12", "AC40": "16.4 µM"}, {"smiles": "CCn1nc(C)c(NC(=O)c2cnn3c(C(F)F)cc(-c4ccccc4)nc23)c1C", "AC40": "3.84 µM"}, {"smiles": "O=c1c2ccc(Cl)cc2[nH]c(=S)n1CCC1=CCCCC1", "AC40": "3.37 µM"}, {"smiles": "CCCc1nnc2n1N=C(c1ccc(OC)c(OC)c1)CS2", "AC40": "2.98 µM"}, {"smiles": "N/C(=N\\OC(=O)COc1ccc(Cl)cc1Cl)c1cccnc1", "AC40": "29.8 µM"}, {"smiles": "CCOC(=O)C1(C)CCCCN1C(=O)c1cccc(Cl)c1", "note": "(centres undefined)", "AC40": "> 35 µM (inactive)"}, {"smiles": "CCOc1cc(/C=N/NC(=O)CCn2nc(C)cc2C)ccc1O", "AC40": "8.04 µM"}, {"smiles": "COc1ccc(C)cc1NCc1cc(=O)oc2cc(-c3ccccc3)c(O)cc12", "AC40": "15.8 µM"}, {"smiles": "CNc1nc(Nc2ccccc2)nc(OCC(F)(F)F)n1", "AC40": "0.606 µM"}, {"smiles": "COCCn1c(=NC(=O)c2cc(Cl)sc2Cl)sc2cc(S(N)(=O)=O)ccc21", "AC40": "7.51 µM"}, {"smiles": "O[C@H]1C[C@H](c2ccccc2)N(CC2CCCCC2)C[C@@H]1n1cc(C2CC2)nn1", "AC40": "11.5 µM"}, {"smiles": "Cc1ccccc1NC(=O)c1ccc(OCc2c(C)noc2C)cc1", "AC40": "> 35 µM (inactive)"}, {"smiles": "CCCNC(=O)Cn1sc2nc(C)cc(C)c2c1=O", "AC40": "6.91 µM"}, {"smiles": "COC(=O)C1=C(C)N(Cc2cccc(C(F)(F)F)c2)C(=NCc2ccccc2)NC1c1ccc(Cl)cc1", "note": "(centres undefined)", "AC40": "11.6 µM"}, {"smiles": "CCOC(=O)c1c(-c2ccc(-c3ccccc3)cc2)csc1NC(=O)CNCCN(C)C", "AC40": "8.58 µM"}, {"smiles": "Oc1ccccc1-c1cc(C(F)(F)C(F)F)nc(-c2ccccc2)n1", "AC40": "7.7 µM"}]}]}
